Measurements as given in ChEMBL document CHEMBL1255397, “Attenuation of cerebrospinal fluid inflammation by the nonbacteriolytic antibiotic daptomycin versus that by ceftriaxone in experimental pneumococcal meningitis” (Antimicrob Agents Chemother, 2010).

Experiments:
Rattus norvegicus [1] = assay: Toxicity in Streptococcus pneumoniae serotype 3 clinical isolate infected in Wistar rat assessed as increase in CSF IL-18 concentration at 50 mg/kg, sc administered 18 hrs post infection measured after 2 to 6 hrs by microsphere-based multiplex assay; format: organism-based; set-up: dose 50 mg/kg, route subcutaneous; details: in vivo
Rattus norvegicus [2] = assay: Toxicity in Streptococcus pneumoniae serotype 3 clinical isolate infected in Wistar rat assessed as increase in CSF MIP-1alpha concentration at 100 mg/kg, sc administered 18 hrs post infection measured after 2 to 6 hrs by microsphere-based multiplex assay; format: organism-based; set-up: dose 100 mg/kg, route subcutaneous; details: in vivo
Rattus norvegicus [3] = assay: Toxicity in Streptococcus pneumoniae serotype 3 clinical isolate infected in Wistar rat assessed as increase in CSF MCP-1 concentration at 100 mg/kg, sc administered 18 hrs post infection measured after 2 to 6 hrs by microsphere-based multiplex assay; format: organism-based; set-up: dose 100 mg/kg, route subcutaneous; details: in vivo
Rattus norvegicus [4] = assay: Toxicity in Streptococcus pneumoniae serotype 3 clinical isolate infected in Wistar rat assessed as decrease in CSF IL1-beta concentration at 100 mg/kg, sc administered 18 hrs post infection measured after 2 to 6 hrs by microsphere-based multiplex assay; format: organism-based; set-up: dose 100 mg/kg, route subcutaneous; details: in vivo
Rattus norvegicus [5] = assay: Toxicity in Streptococcus pneumoniae serotype 3 clinical isolate infected in Wistar rat assessed as decrease in CSF IL-10 concentration at 100 mg/kg, sc administered 18 hrs post infection measured after 2 to 6 hrs by microsphere-based multiplex assay; format: organism-based; set-up: dose 100 mg/kg, route subcutaneous; details: in vivo
Rattus norvegicus [6] = assay: Decrease in severity of cortical damage in Streptococcus pneumoniae serotype 3 clinical isolate infected in Wistar rat at 100 mg/kg, sc administered 18 hrs post infection measured after 2 to 6 hrs; format: functional; details: route subcutaneous
Rattus norvegicus [7] = assay: Toxicity in Streptococcus pneumoniae serotype 3 clinical isolate infected in Wistar rat assessed as decrease in CSF MIP-1alpha concentration at 50 mg/kg, sc administered 18 hrs post infection measured after 2 to 6 hrs by microsphere-based multiplex assay; format: organism-based; set-up: dose 50 mg/kg, route subcutaneous; details: in vivo
Rattus norvegicus [8] = assay: Toxicity in Streptococcus pneumoniae serotype 3 clinical isolate infected in Wistar rat assessed as decrease in CSF MCP-1 concentration at 50 mg/kg, sc administered 18 hrs post infection measured after 2 to 6 hrs by microsphere-based multiplex assay; format: organism-based; set-up: dose 50 mg/kg, route subcutaneous; details: in vivo
Rattus norvegicus [9] = assay: Toxicity in against Streptococcus pneumoniae serotype 3 clinical isolate infected in Wistar rat assessed as decrease in CSF IL-18 concentration at 50 mg/kg, sc administered 18 hrs post infection measured after 2 to 6 hrs by microsphere-based multiplex assay; format: organism-based; set-up: dose 50 mg/kg, route subcutaneous; details: in vivo
Rattus norvegicus [10] = assay: Toxicity in Streptococcus pneumoniae serotype 3 clinical isolate infected in Wistar rat assessed as decrease in CSF IL1-beta concentration at 50 mg/kg, sc administered 18 hrs post infection measured after 2 to 6 hrs by microsphere-based multiplex assay; format: organism-based; set-up: dose 50 mg/kg, route subcutaneous; details: in vivo
Rattus norvegicus [11] = assay: Toxicity in Streptococcus pneumoniae serotype 3 clinical isolate infected in Wistar rat assessed as decrease in CSF IL-10 concentration at 50 mg/kg, sc administered 18 hrs post infection measured after 2 to 6 hrs by microsphere-based multiplex assay; format: organism-based; set-up: dose 50 mg/kg, route subcutaneous; details: in vivo
Rattus norvegicus [12] = assay: Toxicity in against Streptococcus pneumoniae serotype 3 clinical isolate infected in Wistar rat assessed as increase in CSF IL-18 concentration at 100 mg/kg, sc administered 18 hrs post infection measured after 2 to 6 hrs by microsphere-based multiplex assay; format: organism-based; set-up: dose 100 mg/kg, route subcutaneous; details: in vivo
Streptococcus pneumoniae = assay: Antimicrobial activity against Streptococcus pneumoniae serotype 3 clinical isolate infected in Wistar rat assessed as cerebrospinal fluid bacterial titer at 50 mg/kg, sc administered 18 hrs post infection measured after 4 hrs; format: functional; details: route subcutaneous
Rattus norvegicus [13] = assay: Decrease in severity of cortical damage in Streptococcus pneumoniae serotype 3 clinical isolate infected in Wistar rat at 50 mg/kg, sc administered 18 hrs post infection measured after 2 to 6 hrs; format: functional; details: route subcutaneous
Rattus norvegicus [14] = assay: Toxicity in Streptococcus pneumoniae serotype 3 clinical isolate infected in Wistar rat assessed as decrease in CSF TNF-alpha concentration at 50 mg/kg, sc administered 18 hrs post infection measured after 2 to 6 hrs by microsphere-based multiplex assay; format: organism-based; set-up: dose 50 mg/kg, route subcutaneous; details: in vivo
Rattus norvegicus [15] = assay: Toxicity in Streptococcus pneumoniae serotype 3 clinical isolate infected in Wistar rat assessed as decrease in CSF CXCL1 concentration at 50 mg/kg, sc administered 18 hrs post infection measured after 2 to 6 hrs by microsphere-based multiplex assay; format: organism-based; set-up: dose 50 mg/kg, route subcutaneous; details: in vivo
Rattus norvegicus [16] = assay: Toxicity in Streptococcus pneumoniae serotype 3 clinical isolate infected in Wistar rat assessed as decrease in CSF IL-6 concentration at 50 mg/kg, sc administered 18 hrs post infection measured after 2 to 6 hrs by microsphere-based multiplex assay; format: organism-based; set-up: dose 50 mg/kg, route subcutaneous; details: in vivo

| SMILES | Activity (Rattus norvegicus [1]) | Activity (Rattus norvegicus [2]) | Activity (Rattus norvegicus [3]) | Activity (Rattus norvegicus [4]) | Activity (Rattus norvegicus [5]) | inhibition in vivo at 100 mg/kg (Rattus norvegicus [6]) [%] | Activity (Rattus norvegicus [7]) | Activity (Rattus norvegicus [8]) | Activity (Rattus norvegicus [9]) | Activity (Rattus norvegicus [10]) | Activity (Rattus norvegicus [11]) | Activity (Rattus norvegicus [12]) | log10CFU/ml (Streptococcus pneumoniae) [CFU/ml] | inhibition in vivo at 50 mg/kg (Rattus norvegicus [13]) [%] | Activity (Rattus norvegicus [14]) | Activity (Rattus norvegicus [15]) | Activity (Rattus norvegicus [16]) |
| --- | --- | --- | --- | --- | --- | --- | --- | --- | --- | --- | --- | --- | --- | --- | --- | --- | --- |
| CO/N=C(\C(=O)N[C@@H]1C(=O)N2C(C(=O)O)=C(CSc3nc(=O)c(=O)[nH]n3C)CS[C@H]12)c1csc(N)n1 [CEFTRIAXONE] | Toxic | Toxic | Toxic | Toxic | Toxic | 4.7 | Non-toxic | Non-toxic | Non-toxic | Non-toxic | Non-toxic | – | – | – | – | – | – |
| CCCCCCCCCC(=O)N[C@@H](Cc1c[nH]c2ccccc12)C(=O)N[C@H](CC(N)=O)C(=O)N[C@@H](CC(=O)O)C(=O)N[C@@H]1C(=O)NCC(=O)N[C@@H](CCCN)C(=O)N[C@@H](CC(=O)O)C(=O)N[C@H](C)C(=O)N[C@@H](CC(=O)O)C(=O)NCC(=O)N[C@H](CO)C(=O)N[C@@H]([C@H](C)CC(=O)O)C(=O)N[C@@H](CC(=O)c2ccccc2N)C(=O)O[C@@H]1C | – | – | – | – | – | – | – | – | – | – | – | Toxic | < 1000 | 0.13 | Non-toxic | Non-toxic | Non-toxic |
